The labels stand for the following.
B4: O-acetylserine sulfhydrylase-A (CysK) from E. coli (enzyme, UniProt P0ABK5 1-323, looked up)
chain: MSKIFEDNSLTIGHTPLVRLNRIGNGRILAKVESRNPSFSVKCRIGANMIWDAEKRGVLKPGVELVEPTSGNTGIALAYVAAARGYKLTLTMPETMSIERRKLLKALGANLVLTEGAKGMKGAIQKAEEIVASNPEKYLLLQQFSNPANPEIHEKTTGPEIWEDTDGQVDVFIAGVGTGGTLTGVSRYIKGTKGKTDLISVAVEPTDSPVIAQALAGEEIKPGPHKIQGIGAGFIPANLDLKLVDKVIGITNEEAISTARRLMEEEGILAGISSGAAVAAALKLQEDESFTNKNIVVILPSSGERYLSTALFADLFTEKELQQ
modifications: bound pyridoxal 5'-phosphate (PLP) cofactor

For data set [1], the target named is T1, cysteine synthase complex (CSC; E. coli CysE in complex with E. coli CysK) (Escherichia coli, UniProt P0A9D4).
T1 sequence (P0A9D4 1-273): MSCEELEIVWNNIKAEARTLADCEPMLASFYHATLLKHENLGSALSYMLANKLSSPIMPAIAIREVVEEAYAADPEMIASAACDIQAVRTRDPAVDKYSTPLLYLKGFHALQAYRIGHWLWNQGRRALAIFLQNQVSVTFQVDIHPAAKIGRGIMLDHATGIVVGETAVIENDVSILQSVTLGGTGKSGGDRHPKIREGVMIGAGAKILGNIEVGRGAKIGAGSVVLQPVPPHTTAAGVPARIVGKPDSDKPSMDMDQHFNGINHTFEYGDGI
T1 sequence (P0ABK5 1-323 partner): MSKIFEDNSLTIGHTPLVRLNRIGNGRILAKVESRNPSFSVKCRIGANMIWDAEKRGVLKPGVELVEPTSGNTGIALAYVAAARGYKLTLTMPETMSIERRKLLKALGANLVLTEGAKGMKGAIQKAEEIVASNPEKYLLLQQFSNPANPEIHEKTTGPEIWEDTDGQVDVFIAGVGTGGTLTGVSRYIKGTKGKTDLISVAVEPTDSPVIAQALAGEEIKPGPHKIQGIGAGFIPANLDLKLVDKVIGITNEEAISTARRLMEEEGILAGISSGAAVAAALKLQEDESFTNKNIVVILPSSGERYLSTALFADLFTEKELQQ
The data set can be described thus: L-Ser acetylation steady-state kinetics of CysE in complex with CysK. The conditions noted are these: for apparent kcat: per CysE hexamer.

Data set [2] concerns the target T2, Escherichia coli CysE (Escherichia coli, UniProt P0A9D4).
T2 sequence (P0A9D4 1-273): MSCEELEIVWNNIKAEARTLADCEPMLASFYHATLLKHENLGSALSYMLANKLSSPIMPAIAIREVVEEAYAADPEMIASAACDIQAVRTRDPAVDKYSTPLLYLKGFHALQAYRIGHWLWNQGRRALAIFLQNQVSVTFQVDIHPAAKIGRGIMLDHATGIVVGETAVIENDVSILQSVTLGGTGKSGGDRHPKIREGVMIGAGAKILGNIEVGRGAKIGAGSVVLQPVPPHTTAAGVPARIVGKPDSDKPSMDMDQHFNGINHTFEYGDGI
The data set can be described thus: L-Ser acetylation steady-state kinetics of isolated CysE. The conditions noted are these: for apparent kcat: per CysE hexamer.

Data set [3] concerns the target CysK (Escherichia coli, UniProt P0ABK5). As to the kind of experiment: Fluorescence titration of CysK. Type of data set: binding. As to conditions: in the presence of 10 μM L-Cys.
The test system of data set [4] is plant CysE. The conditions noted are these: plant CysE in the CSC vs free; cited from earlier work.
Substrate in data set [5]: N[C@@H](CO)C(=O)O
As to the kind of experiment: purified protein, by the assay type. The conditions noted are these: 20.0 °C.

Data set [6] addresses B4. The data set can be described thus: other fluorescence titration.
Data set [7] deals with the molecule itself. As to the kind of experiment: SEC.
Data set [8] has as its target B4. As to the kind of experiment: inhibition of enzyme activity.

Where two headings read alike, the source gives them in different places.

As to `CC(=O)SCCNC(=O)CCNC(=O)[C@H](O)C(C)(C)COP(=O)(O)OP(=O)(O)OC[C@H]1O[C@@H](n2cnc3c(N)ncnc32)[C@H](O)[C@@H]1OP(=O)(O)O` [Acetyl-CoA, acetyl-CoA], the apparent kcat worked out at 416 ± 38 s⁻¹ in data set [1] (+CysK fivefold molar excess, acetyl-CoA varied, L-Ser 20 mM) and 306 ± 35 s⁻¹ in data set [2] (-CysK, acetyl-CoA varied, L-Ser 20 mM). The Km in data set [1] (read-out: KM,acCoA, +CysK fivefold molar excess, global fit Eqn 2) was 300 ± 100 µM; in data set [2] (read-out: KM,acCoA, -CysK, global fit Eqn 2), 300 ± 100 µM; in data set [2] (read-out: apparent KM, -CysK, acetyl-CoA varied, L-Ser 20 mM, 20 °C), 1400 ± 400 µM. Besides, the Kd in data set [1] (read-out: Kd,acCoa, +CysK fivefold molar excess, global fit Eqn 2) was found to be 100 ± 100 µM; in data set [2] (read-out: Kd,acCoa, -CysK, dissociation from unligated enzyme, global fit Eqn 2), 100 ± 100 µM.
Take `N[C@@H](CS)C(=O)O` [L-Cys, L-cysteine]: the “fold increase in the dissociation constant of the CSC” value in data set [3] is reported as 10 fold. In data set [4], the “fold increase of L-Cys Ki of plant CysE in the CSC” value is listed as “more than 35 fold”. The “increase in L-Cys IC50 of plant CysE in the CSC” value in data set [4] is on record as “fourfold”. The IC50 in data set [1] was 0.7 µM; in data set [2] (IC50 for L-Cys, free CysE), 0.18 µM; in data set [2] (L-Cys concentration around the IC50, 0.1 mM L-Ser (physiological), Fig. S5B), around 0.07 µM; in data set [2] (L-Cys concentration around the IC50, 20 mM L-Ser (saturating), Fig. S5B), around 0.5 µM. For the same molecule, the “increase of L-Cys IC50 in the CSC vs free CysE” value in data set [1] (presence of molar excess CysK) is given as “fourfold”.
For `N[C@@H](CO)C(=O)O` [L-Ser, L-serine], the Kd in data set [1] is 600 ± 200 µM; in data set [2] it was 500 ± 200 µM. In data set [1], this molecule registered a Ki of 16000 ± 5000 µM. Also, the apparent kcat came to 228 ± 34 s⁻¹ in data set [1] (+CysK fivefold molar excess, L-Ser varied, acetyl-CoA […]) and 228 ± 60 s⁻¹ in data set [2] (-CysK, L-Ser varied, acetyl-CoA […]). The “increase in the L-Ser inhibition constant, CSC vs free CysE” value in data set [1] (CysE in complex with CysK) is listed as “four fold”.

B1: Escherichia coli CysE (Escherichia coli K-12) (protein)
chain: MSCEELEIVWNNIKAEARTLADCEPMLASFYHATLLKHENLGSALSYMLANKLSSPIMPAIAIREVVEEAYAADPEMIASAACDIQAVRTRDPAVDKYSTPLLYLKGFHALQAYRIGHWLWNQGRRALAIFLQNQVSVTFQVDIHPAAKIGRGIMLDHATGIVVGETAVIENDVSILQSVTLGGTGKSGGDRHPKIREGVMIGAGAKILGNIEVGRGAKIGAGSVVLQPVPPHTTAAGVPARIVGKPDSDKPSMDMDQHFNGINHTFEYGDGI
For the molecule B1, the Km in data set [5] (other: -CysK, L-Ser varied, acetyl-CoA […]) worked out at 1700 ± 700 µM; in data set [5] (other: -CysK, global fit, random-order mechanism (Eqn 2)), 1300 ± 200 µM.

B2: cysteine synthase complex (CSC; E. coli CysE in complex with E. coli CysK) (Escherichia coli K-12) (protein)
chain: MSCEELEIVWNNIKAEARTLADCEPMLASFYHATLLKHENLGSALSYMLANKLSSPIMPAIAIREVVEEAYAADPEMIASAACDIQAVRTRDPAVDKYSTPLLYLKGFHALQAYRIGHWLWNQGRRALAIFLQNQVSVTFQVDIHPAAKIGRGIMLDHATGIVVGETAVIENDVSILQSVTLGGTGKSGGDRHPKIREGVMIGAGAKILGNIEVGRGAKIGAGSVVLQPVPPHTTAAGVPARIVGKPDSDKPSMDMDQHFNGINHTFEYGDGI
Take B2: the Km in data set [5] (other: +CysK fivefold molar excess, L-Ser varied, acetyl-CoA […]) was 1100 ± 400 µM; in data set [5] (other: +CysK fivefold molar excess, global fit Eqn 2) it was 1200 ± 200 µM.

B3: serine acetyltransferase (CysE) from E. coli (enzyme, UniProt P0A9D4 1-273, looked up)
chain: MSCEELEIVWNNIKAEARTLADCEPMLASFYHATLLKHENLGSALSYMLANKLSSPIMPAIAIREVVEEAYAADPEMIASAACDIQAVRTRDPAVDKYSTPLLYLKGFHALQAYRIGHWLWNQGRRALAIFLQNQVSVTFQVDIHPAAKIGRGIMLDHATGIVVGETAVIENDVSILQSVTLGGTGKSGGDRHPKIREGVMIGAGAKILGNIEVGRGAKIGAGSVVLQPVPPHTTAAGVPARIVGKPDSDKPSMDMDQHFNGINHTFEYGDGI
Turning to B3, the “stoichiometry N” value was ~1.6 CysE:CysK in data set [6] and 6 in data set [7]. The molecule further returned a Ki app in data set [8] of 0.0087 ± 0.001 µM.
For B4, in data set [7], the “stoichiometry N” value is 2.

Source of the values: article PMC5957530 (FEBS letters, 2017).
